Here are results for two compounds from patent publication US5830910A (priority 1995, dated 1998).

Holding throughout (type): cell-based, rat
Data set [1] deals with actin stress fibers in astrocytes. Put plainly: phalloidin staining of actin stress fibers, astrocytes. Conditions: 10-1000 nM (FIG. 4A: 100 nM), 3 h. The method, then:
Hippocampal cells were exposed to cytochalasin D and then fixed for 30 min in 4% paraformaldehyde/phosphate-buffered saline. Cell membranes were permeabilized by incubating for 5 min in a solution of 0.2% Triton X-100 in phosphate-buffered saline. Cells were then incubated for 30 min in PBS containing 0.005 U/ml fluorescein-phalloidin (Molecular Probes). Cells were rinsed in water and mounted in Vectashield antifade solution (Vector Laboratories) . Fluorescence images were acquired using a Sarastro 2000 confocal laser scanning microscope with a 60x oil-immersion objective. All images were acquired using identical settings for excitation intensity and detector gain.
FIG. 4. (A) Micrographs are confocal laser scanning microscope images of cultured hippocampal cells stained with fluorescein-labeled phalloidin. Cells were exposed for 3 h to either vehicle (control; left) or 100 nM cytochalasin D (right) prior to staining with phalloidin. The top micrographs show several neurons (arrowheads point to neuronal cell bodies); note reduction in phalloidin fluorescence in cytochalasin-treatedneurons.

In data set [2] the test system is cultured hippocampal neurons. Conditions: 100 nM cotreated; 50 μM Aβ25-35, 24 hr.
Data set [3] relates to growth cone motility of hippocampal neurons. Description: growth cone motility.
In data set [4] the test system is cultured hippocampal neurons. Put plainly: cells. The note with it: for viability at 0.1 µM: Rattus norvegicus, Hippocampal neuron. The text has this: (§1) Dissociated embryonic rat hippocampal cell cultures were established and maintained. All procedures conformed with the NIH Guide for the Care and Use of Laboratory Animals and were approved by the University of Kentucky Animal Care and Use Committee. Cultures were maintained on a polyethyleneimine-coated substrate in plastic 35-mm dishes or 96 wall plates (for cell survival studies) or glass-bottom 35-mm dishes (for [Ca^2+ ]i imaging studies). The cell density was ^~ 70-100 cells/mm^2. Cells were maintained in Eagle's minimum essential medium supplemented 10% with fetal bovine serum and containing 20 mM sodium pyruvate. […] Aβ25-35 (Bachem, lot ZJ744) and Aβ1-40 (Bachem, lot ZK600) were stored in the lyophilized form, and stocks were prepared immediately before use by dissolving the peptide at a concentration of 1 mM in sterile distilled water. […] Glutamate and colchicine (Sigma) were prepared as 200-500x stocks in saline. Cytochalasins D and E (Sigma) and calcium ionophore 4-bromo-A23187 (Calbiochem) were prepared as 500x stocks in dimethyl sulfoxide. Vitamin E (α-tocopherol; Sigma) was prepared as a 500x stock in ethanol. Nordihydroguaiaretic acid and FeSo4 were prepared as 500x stocks in sterile water.
(§2) Neuronal survival was quantified by counting viable neurons in the same microscope fields (10x objective) immediately before experimental treatment and at time points after treatment. In addition, cells were grown in 96-well plates and Alamar blue fluorescence (Alamar Laboratories)was quantified by using a fluorescence plate reader. Alamar Blue is a non-fluorescent substrate that, after reduction by cell metabolites, becomes fluorescent. Usually neurons that died in the time intervals (20-48 h) between examination points were absent. Viability of the remaining neurons was assessed by morphological criteria. Neutrons with intact neurites of uniform diameter and a soma with a smooth, round appearance were considered viable, whereas neurons with fragmented neurites and a vacuolated or swollen soma were considered nonviable. Survival values were expressed as percentages of the initial number of neurons present before experimental treatment. Statistical comparisons were made using ANOVA and Scheffe post-hoc tests for pairwise comparisons.
Values represent the means and SEM of 4 separate cultures (cell counts) or 4 culture wells (Alamar blue assay). ^a p<0.05 compared to control value. ^b p<0.001 compound to control value. ^c p<0.01 compared to value for glutamate-treated cultures. ^d p<0.005 compared to value for glutamate-treated cultures. ^e p<0.001 compared to value for Aβ-treated cultures. ^f p<0.001 compared to value for cultures treated with 20 μM glutamate. ^g p<0.001 compared to cultures treated with 50 μM Aβ+20 μM glutamate. n.d. not determined.

The test system of data set [5] is cultured hippocampal neurons. Description: iron (FeSO4) neurotoxicity. Conditions: 100 nM, 1 h preincubation.
Source text: as §1, §2
FIG. 8. Cultures were preincubated 1 h in the presence of 0.5% dimethylsulfoxide (control), 100 nM cytochalasin D, 50 μg/ml vitamin E (VitE), or 2 μM nordihydroguairetic acid (NDGA). Cultures were then exposed for 6 h to the indicated concentrations of FeSO4 and neuronal survival was quantified. Values represent the means and SEM of determinations made in four separate cultures. *P<0.001 compared to value for cultures exposed to 100 μM FeSO4 alone.

Data set [6] deals with cultured hippocampal neurons. Conditions: 100 nM, added 1 h before 50 μM Aβ; 48 h.
Where [7] appears, read: 100 μM Glutamate + 10 nM substance.
The mark [8] stands for this setting: 100 μM Glutamate + 100 nM substance.

Entries after “also recorded” stand apart in the source; their conditions may differ. Where two headings read alike, the source gives them in different places.

Regarding `C=C1[C@@H](C)[C@H]2[C@H](Cc3ccccc3)NC(=O)[C@]23[C@H](OC(C)=O)/C=C/[C@@](C)(O)C(=O)[C@@H](C)C/C=C/[C@H]3[C@@H]1O` [Cytochalasin D, cytochalasin D], the “actin stress fibers in astrocytes” value in data set [1] was “loss of actin stress fibers in astrocytes; also recorded: loss of stress fibers and cell rounding”. In addition, the “effect on Aβ neurotoxicity” value in data set [2] is listed as “essentially eliminated”. In addition, the growth cone motility entry in data set [3] is “inhibit growth cone motility”. In addition, the “Neuron Survival (% of control), Alamar Blue Assay” value in data set [4] (10 nM, alone) was 97 ± 7.8 % of control; in data set [4] (100 nM, alone), 91 ± 5.9 % of control; in data set [4] (50 μM Aβ + 10 nM substance), 55 ± 2.5 % of control; in data set [4] (50 μM Aβ + 100 nM substance), 74 ± 1.3 % of control; in data set [4] (50 μM Aβ + 20 μM Glut with 100 nM substance), 63 ± 2.5 % of control; in data set [4] (setting [7]), 43 ± 6.7 % of control. In addition, the “Neuron Survival (% of control), Alamar Blue Assay” value in data set [4] (setting [8]) is 42 ± 4.2 % of control. Moreover, the “Neuron Survival (% of control), Cell Counts” value in data set [4] (10 nM, alone) was 89 ± 2.4 % of control; in data set [4] (100 nM, alone), 87 ± 2.2 % of control; in data set [4] (setting [7]), 54 ± 7.4 % of control; in data set [4] (setting [8]), 45 ± 9.8 % of control. In data set [4] (1-100 nM, alone), the “effect on neuronal survival, alone” value is “no significant effect on neuronal survival”. Also, the “effect on neuronal loss induced by iron” value in data set [5] was “not significantly altered”.
Take `COc1cc2c(c(OC)c1OC)-c1ccc(OC)c(=O)cc1[C@@H](NC(C)=O)CC2` [Colchicine, colchicine, reference compound]: the entries for the “effect on Aβ neurotoxicity” value in data set [6] and in data set [2] were “did not protect neurons against Aβ toxicity” and “exacerbated Aβ toxicity”, respectively. Further, the “effect on neuronal survival, alone” value in data set [4] (100 nM, alone) was “reduced survival”. Besides, the viability at 0.1 µM is 40 ± 5.2% in data set [4] (100 nM, alone, read-out: Neuron Survival (% of control), Alamar Blue Assay); 23 ± 2.8% in data set [4] (50 μM Aβ + 100 nM substance, read-out: Neuron Survival (% of control), Alamar Blue Assay); 12 ± 2.2% in data set [4] (100 μM Glutamate + 100 nM substance, read-out: Neuron Survival (% of control), Alamar Blue Assay); 85 ± 1.9% in data set [4] (read-out: Neuron Survival (% of control), Cell Counts, 100 nM, alone).
